Reference: patent USRE48335E1, “Polymyxin derivatives as antimicrobial compounds” (priority 2014, dated 2020)
Converted amounts (≈) assume the structure as drawn. Positions of bridges follow the written chain, without caps; N, C: chain ends. Non-standard residues stand in square brackets, D forms with d. Residues, ends and D or L forms follow the SMILES beside them. *: point of attachment. X30 = Cc1cc(C)c(C(=O)*)c(C)c1; Decanoyl = CCCCCCCCCC(=O)*; X26 = Cc1ccc(CC(=O)*)cc1C; Heptanoyl = CCCCCCC(=O)*; Octanoyl = CCCCCCCC(=O)*; Orn = NCCC[C@H](N)C(=O)O; X42 = Cc1ccc(C(=O)*)cc1F; Dab = NCC[C@H](N)C(=O)O; Abu = CC[C@H](N)C(=O)O; Dap = NC[C@H](N)C(=O)O

Key:
Enterobacter cloacae = system: Enterobacter cloacae
Summary of the method: (§1)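 Broth microdilution, CAMHB, per CLSI M100-S18; compounds as TFA salts; polymyxin B (sulphate) control; read-out MIC.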

Pseudomonas aeruginosa = system: Pseudomonas aeruginosa
Summary of the method: as §1

Acinetobacter baumannii = system: Acinetobacter baumannii
Summary of the method: as §1

| Compound | Minimum inhibitory concentration, Ec FADDI-EC001 (Enterobacter cloacae) | Minimum inhibitory concentration, Ec FADDI-EC003 (Enterobacter cloacae) | Minimum inhibitory concentration, Ec FADDI-EC006 (Enterobacter cloacae) | Minimum inhibitory concentration, Pa ATCC 27853 (Pseudomonas aeruginosa) | Minimum inhibitory concentration, Pa FADDI-PA022 (Pseudomonas aeruginosa) | Minimum inhibitory concentration, Pa FADDI-PA025 (Pseudomonas aeruginosa) | Minimum inhibitory concentration, Ab A ATCC 17978 (Acinetobacter baumannii) | Minimum inhibitory concentration, Ab ATCC 19606 (Acinetobacter baumannii) | Minimum inhibitory concentration, Ab FADDI-AB034 (Acinetobacter baumannii) | Minimum inhibitory concentration (MIC), Ec FADDI-EC001 (Enterobacter cloacae) | Minimum inhibitory concentration (MIC), Ec FADDI-EC003 (Enterobacter cloacae) | Minimum inhibitory concentration (MIC), Ec FADDI-EC006 (Enterobacter cloacae) | Minimum inhibitory concentration (MIC), Pa ATCC 27853 (Pseudomonas aeruginosa) | Minimum inhibitory concentration (MIC), Pa FADDI-PA022 (Pseudomonas aeruginosa) | Minimum inhibitory concentration (MIC), Pa FADDI-PA025 (Pseudomonas aeruginosa) | Minimum inhibitory concentration (MIC), Ab ATCC 17978 (Acinetobacter baumannii) | Minimum inhibitory concentration (MIC), Ab ATCC 19606 (Acinetobacter baumannii) | Minimum inhibitory concentration (MIC), Ab FADDI-AB034 (Acinetobacter baumannii) |
| --- | --- | --- | --- | --- | --- | --- | --- | --- | --- | --- | --- | --- | --- | --- | --- | --- | --- | --- |
| CC[C@@H]1NC(=O)[C@@H](CC(C)C)NC(=O)[C@H](CCN)NC(=O)[C@@H](NC(=O)[C@H](CN)NC(=O)[C@@H](NC(=O)[C@H](CCN)NC(=O)Cc2ccc(C)c(C)c2)[C@@H](C)O)CCNC(=O)[C@H]([C@@H](C)O)NC(=O)[C@H](CCN)NC(=O)[C@H](CCN)NC1=O [Compound 103] (X26-[Dab]T[Dap][Dab][Dab][dL][Abu][Dab][Dab]T; lactam 4-C) | <0.125 µg/mL | <0.125 µg/mL | 0.5 µg/mL (≈ 0.441 µM) | 0.5 µg/mL (≈ 0.441 µM) | 0.5 µg/mL (≈ 0.441 µM) | 2 µg/mL (≈ 1.76 µM) | 0.5 µg/mL (≈ 0.441 µM) | 0.5 µg/mL (≈ 0.441 µM) | 0.5 µg/mL (≈ 0.441 µM) | – | – | – | – | – | – | – | – | – |
| CC[C@@H]1NC(=O)[C@@H](CC(C)C)NC(=O)[C@H](CCN)NC(=O)[C@@H](NC(=O)[C@H](CN)NC(=O)[C@@H](NC(=O)[C@H](CCN)NC(=O)c2ccc(C)c(F)c2)[C@@H](C)O)CCNC(=O)[C@H]([C@@H](C)O)NC(=O)[C@H](CCN)NC(=O)[C@H](CCN)NC1=O [Compound 102] (X42-[Dab]T[Dap][Dab][Dab][dL][Abu][Dab][Dab]T; lactam 4-C) | 1 µg/mL (≈ 0.89 µM) | 0.5 µg/mL (≈ 0.445 µM) | 4 µg/mL (≈ 3.56 µM) | 0.5 µg/mL (≈ 0.445 µM) | 0.5 µg/mL (≈ 0.445 µM) | 2 µg/mL (≈ 1.78 µM) | 1 µg/mL (≈ 0.89 µM) | 2 µg/mL (≈ 1.78 µM) | 1 µg/mL (≈ 0.89 µM) | – | – | – | – | – | – | – | – | – |
| CCCCCCC(=O)N[C@@H](CCN)C(=O)N[C@H](C(=O)N[C@@H](CN)C(=O)N[C@H]1CCNC(=O)[C@H]([C@@H](C)O)NC(=O)[C@H](CCN)NC(=O)[C@H](CCN)NC(=O)[C@H](CC)NC(=O)[C@@H](CC(C)C)NC(=O)[C@H](CCN)NC1=O)[C@@H](C)O [Compound 64] (Heptanoyl-[Dab]T[Dap][Dab][Dab][dL][Abu][Dab][Dab]T; lactam 4-C) | 0.5 µg/mL (≈ 0.455 µM) | <0.125 µg/mL | 0.25 µg/mL (≈ 0.227 µM) | 1 µg/mL (≈ 0.91 µM) | 2 µg/mL (≈ 1.82 µM) | 8 µg/mL (≈ 7.28 µM) | 0.5 µg/mL (≈ 0.455 µM) | 0.5 µg/mL (≈ 0.455 µM) | 1 µg/mL (≈ 0.91 µM) | – | – | – | – | – | – | – | – | – |
| CCCCCCCCCC(=O)N[C@@H](CCN)C(=O)N[C@H](C(=O)N[C@@H](CN)C(=O)N[C@H]1CCNC(=O)[C@H]([C@@H](C)O)NC(=O)[C@H](CCN)NC(=O)[C@H](CCN)NC(=O)[C@H]([C@@H](C)O)NC(=O)[C@@H](CC(C)C)NC(=O)[C@H](CCN)NC1=O)[C@@H](C)O [Compound 37] (Decanoyl-[Dab]T[Dap][Dab][Dab][dL]T[Dab][Dab]T; lactam 4-C) | 0.5 µg/mL (≈ 0.432 µM) | 4 µg/mL (≈ 3.46 µM) | 0.5 µg/mL (≈ 0.432 µM) | 1 µg/mL (≈ 0.864 µM) | 0.5 µg/mL (≈ 0.432 µM) | 2 µg/mL (≈ 1.73 µM) | 0.5 µg/mL (≈ 0.432 µM) | 0.25 µg/mL (≈ 0.216 µM) | 0.25 µg/mL (≈ 0.216 µM) | – | – | – | – | – | – | – | – | – |
| CCCCCCCC(=O)N[C@@H](CCN)C(=O)N[C@H](C(=O)N[C@@H](CN)C(=O)N[C@H]1CCNC(=O)[C@H]([C@@H](C)O)NC(=O)[C@H](CCN)NC(=O)[C@H](CCN)NC(=O)[C@H](C(C)C)NC(=O)[C@@H](CC(C)C)NC(=O)[C@H](CCN)NC1=O)[C@@H](C)O [Compound 36] (Octanoyl-[Dab]T[Dap][Dab][Dab][dL]V[Dab][Dab]T; lactam 4-C) | 0.25 µg/mL (≈ 0.222 µM) | <0.125 µg/mL | 0.25 µg/mL (≈ 0.222 µM) | 1 µg/mL (≈ 0.887 µM) | 1 µg/mL (≈ 0.887 µM) | 4 µg/mL (≈ 3.55 µM) | 0.5 µg/mL (≈ 0.443 µM) | 0.25 µg/mL (≈ 0.222 µM) | 0.5 µg/mL (≈ 0.443 µM) | – | – | – | – | – | – | – | – | – |
| CCCCCCC(=O)N[C@@H](CCN)C(=O)N[C@H](C(=O)N[C@@H](CCN)C(=O)N[C@H]1CCNC(=O)[C@H]([C@@H](C)O)NC(=O)[C@H](CCN)NC(=O)[C@H](CCN)NC(=O)[C@H]([C@@H](C)O)NC(=O)[C@@H](CC(C)C)NC(=O)[C@H](CCN)NC1=O)[C@@H](C)O [Compound 42] (Heptanoyl-[Dab]T[Dab][Dab][Dab][dL]T[Dab][Dab]T; lactam 4-C) | <0.125 µg/mL | <0.125 µg/mL | 0.25 µg/mL (≈ 0.221 µM) | 0.5 µg/mL (≈ 0.443 µM) | 2 µg/mL (≈ 1.77 µM) | >32 µg/mL | 4 µg/mL (≈ 3.54 µM) | 4 µg/mL (≈ 3.54 µM) | 2 µg/mL (≈ 1.77 µM) | – | – | – | – | – | – | – | – | – |
| CCCCCCCCCC(=O)N[C@@H](CCN)C(=O)N[C@H](C(=O)N[C@@H](CN)C(=O)N[C@H]1CCNC(=O)[C@H]([C@@H](C)O)NC(=O)[C@H](CCN)NC(=O)[C@H](CCN)NC(=O)[C@H](C(C)C)NC(=O)[C@@H](CC(C)C)NC(=O)[C@H](CCN)NC1=O)[C@@H](C)O [Compound 39] (Decanoyl-[Dab]T[Dap][Dab][Dab][dL]V[Dab][Dab]T; lactam 4-C) | 0.5 µg/mL (≈ 0.433 µM) | 0.5 µg/mL (≈ 0.433 µM) | 0.5 µg/mL (≈ 0.433 µM) | 1 µg/mL (≈ 0.865 µM) | 2 µg/mL (≈ 1.73 µM) | 2 µg/mL (≈ 1.73 µM) | 2 µg/mL (≈ 1.73 µM) | 0.5 µg/mL (≈ 0.433 µM) | 1 µg/mL (≈ 0.865 µM) | – | – | – | – | – | – | – | – | – |
| CC[C@@H]1NC(=O)[C@@H](CC(C)C)NC(=O)[C@H](CCN)NC(=O)[C@@H](NC(=O)[C@H](CN)NC(=O)[C@@H](NC(=O)[C@H](CCN)NC(=O)c2c(C)cc(C)cc2C)[C@@H](C)O)CCNC(=O)[C@H]([C@@H](C)O)NC(=O)[C@H](CCN)NC(=O)[C@H](CCN)NC1=O [Compound 92] (X30-[Dab]T[Dap][Dab][Dab][dL][Abu][Dab][Dab]T; lactam 4-C) | <0.125 µg/mL | 0.25 µg/mL (≈ 0.221 µM) | 2 µg/mL (≈ 1.76 µM) | 0.5 µg/mL (≈ 0.441 µM) | 0.5 µg/mL (≈ 0.441 µM) | 4 µg/mL (≈ 3.53 µM) | 0.5 µg/mL (≈ 0.441 µM) | 4 µg/mL (≈ 3.53 µM) | 4 µg/mL (≈ 3.53 µM) | – | – | – | – | – | – | – | – | – |
| CCCCCCCC(=O)N[C@@H](CN)C(=O)N[C@H](C(=O)N[C@@H](CCN)C(=O)N[C@H]1CCNC(=O)[C@H]([C@@H](C)O)NC(=O)[C@H](CCN)NC(=O)[C@H](CCN)NC(=O)[C@H]([C@@H](C)O)NC(=O)[C@@H](CC(C)C)NC(=O)[C@H](CCN)NC1=O)[C@@H](C)O [Compound 31] (Octanoyl-[Dap]T[Dab][Dab][Dab][dL]T[Dab][Dab]T; lactam 4-C) | <0.125 µg/mL | 0.25 µg/mL (≈ 0.221 µM) | 0.5 µg/mL (≈ 0.443 µM) | 0.5 µg/mL (≈ 0.443 µM) | 0.5 µg/mL (≈ 0.443 µM) | 16 µg/mL (≈ 14.2 µM) | 4 µg/mL (≈ 3.54 µM) | 4 µg/mL (≈ 3.54 µM) | 2 µg/mL (≈ 1.77 µM) | – | – | – | – | – | – | – | – | – |
| CCCCCCCC(=O)N[C@@H](CCN)C(=O)N[C@H](C(=O)N[C@@H](CCN)C(=O)N[C@H]1CCCNC(=O)[C@H]([C@@H](C)O)NC(=O)[C@H](CCN)NC(=O)[C@H](CCN)NC(=O)[C@H]([C@@H](C)O)NC(=O)[C@@H](CC(C)C)NC(=O)[C@H](CCN)NC1=O)[C@@H](C)O [Compound 149] (Octanoyl-[Dab]T[Dab][Orn][Dab][dL]T[Dab][Dab]T; lactam 4-C) | – | – | – | – | – | – | – | – | – | >32 µg/mL | >32 µg/mL | >32 µg/mL | >32 µg/mL | >32 µg/mL | >32 µg/mL | >32 µg/mL | >32 µg/mL | >32 µg/mL |
| CCCCCCCC(=O)N[C@@H](CCN)C(=O)N[C@H](C(=O)N[C@@H](CN)C(=O)N[C@H]1CCNC(=O)[C@H]([C@@H](C)O)NC(=O)[C@H](CCN)NC(=O)[C@H](CCCN)NC(=O)[C@H]([C@@H](C)O)NC(=O)[C@@H](CC(C)C)NC(=O)[C@H](CCN)NC1=O)[C@@H](C)O [Compound 54] (Octanoyl-[Dab]T[Dap][Dab][Dab][dL]T[Orn][Dab]T; lactam 4-C) | <0.125 µg/mL | <0.125 µg/mL | 0.25 µg/mL (≈ 0.219 µM) | 4 µg/mL (≈ 3.5 µM) | 2 µg/mL (≈ 1.75 µM) | 16 µg/mL (≈ 14 µM) | 0.5 µg/mL (≈ 0.437 µM) | 0.5 µg/mL (≈ 0.437 µM) | 0.25 µg/mL (≈ 0.219 µM) | – | – | – | – | – | – | – | – | – |
